Experimental data from patent US20230348376A1 (TEIJIN PHARMA LIMITED, priority 2020, published 2023).

How the values were obtained:
human VDR = biological target: T1, human VDR (Homo sapiens, UniProt P11473); assay: Evaluation of VDR transcription activity in human osteoblasts (HOS cells), luciferase reporter; settings: Activity (EC50, VDR transcription activity), HOS cells transfected with human VDR, human RXRα and DR3 luciferase reporter; 21 hours
T1 sequence (P11473 1-427): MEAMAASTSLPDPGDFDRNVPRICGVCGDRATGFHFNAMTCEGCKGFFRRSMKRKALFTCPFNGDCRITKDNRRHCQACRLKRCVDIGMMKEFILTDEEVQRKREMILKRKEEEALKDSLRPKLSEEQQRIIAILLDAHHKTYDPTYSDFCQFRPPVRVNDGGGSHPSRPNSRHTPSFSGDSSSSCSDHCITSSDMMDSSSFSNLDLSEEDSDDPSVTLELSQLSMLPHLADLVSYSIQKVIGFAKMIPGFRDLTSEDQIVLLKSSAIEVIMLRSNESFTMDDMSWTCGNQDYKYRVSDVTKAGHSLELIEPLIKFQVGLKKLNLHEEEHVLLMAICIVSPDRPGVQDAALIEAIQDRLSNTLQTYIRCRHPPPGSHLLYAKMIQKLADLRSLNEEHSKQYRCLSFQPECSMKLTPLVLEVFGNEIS
T1 sequence (P19793 1-462 partner): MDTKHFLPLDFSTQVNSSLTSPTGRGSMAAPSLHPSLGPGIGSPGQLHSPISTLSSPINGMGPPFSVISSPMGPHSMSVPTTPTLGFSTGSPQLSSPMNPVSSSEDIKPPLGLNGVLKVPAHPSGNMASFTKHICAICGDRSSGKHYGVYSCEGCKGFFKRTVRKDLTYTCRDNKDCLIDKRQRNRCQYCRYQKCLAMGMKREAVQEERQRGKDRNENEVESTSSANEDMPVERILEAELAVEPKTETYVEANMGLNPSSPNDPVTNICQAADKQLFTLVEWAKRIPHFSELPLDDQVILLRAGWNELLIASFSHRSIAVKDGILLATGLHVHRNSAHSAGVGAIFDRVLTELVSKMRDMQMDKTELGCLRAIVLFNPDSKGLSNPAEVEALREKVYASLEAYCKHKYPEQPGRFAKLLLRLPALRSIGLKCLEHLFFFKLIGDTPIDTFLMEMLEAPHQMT

[1] = system: rat oligodendrocyte progenitor cells; assay: Promotive activity of rat oligodendrocyte progenitor cell differentiation-2 (immunostaining of MBP); assay type: cell-based; settings: Test 2; vitamin D derivative 2 μM, T3 30 nM; 4 days
In short: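 Vitamin D derivatives scored as symbols for promoting differentiation, read out by MBP immunostaining. OPCs taken from supernatant after about 22 h shaking (37 °C, 200 rpm) in separation medium.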

mouse cuprizone model = assay: Myelin regeneration promoting action in mouse cuprizone model (LFB staining of corpus callosum); assay type: in vivo; settings: 20 μg/kg oral once a day, 4 weeks after 6 weeks cuprizone diet; untreated = 100%
Text: C57BL/6J mice (8 weeks old, male) were fed a diet containing 0.3% cuprizone (bis(cyclohexanone)oxaldihydrazone) (Research Diets, Inc. #D17042709) for 6 weeks to induce demyelination. Subsequently, the mice were divided into groups of 8 mice based on the body weight, the diet was switched to a cuprizone-free diet (Research Diets, Inc. #D10001), and administration of the test compound or vehicle was started. […] After administration of 4 weeks, the mice were euthanized, perfused with a 4% paraformaldehyde solution, and then brain sampling was performed. The brain sample obtained was embedded in paraffin to prepare a coronal section specimen at Bregma+1. The specimen was stained with Luxor Fast Blue (LFB) to visualize the myelin sheath, and images were acquired using a fluorescence microscope (KEYENCE #BZ-X710). The corpus callosum area and the LFB staining positive area in the corpus callosum of the obtained pathological specimen image were measured using an image analysis application (KEYENCE #BZ-H3C/BZ-H3XD), and the ratio (LFB staining positive area in the corpus callosum/corpus callosum area) was calculated. The intact group is a non-pathogenic group, and the […] control group were sampled after feeding the diet containing 0.3% cuprizone for 6 weeks.
In the table, the ratio of LFB staining positive area in the corpus callosum/corpus callosum area of the untreated group, fed with the cuprizone-free diet for 6 weeks, was regarded as 100%. As a result, the control group, fed with the cuprizone-containing diet for 6 weeks, decreased the ratio to 23.6%, and was confirmed to progress demyelination. The group, in which the cuprizone-containing diet was fed for 6 weeks and switched to the cuprizone-free diet, and the vehicle was administered, improved the ratio of area of LFB staining positive/area of corpus callosum to 50.1%. […] In addition, GSK239512 described in WO2013/107336 pamphlet was evaluated in the test to show the ratio of LFB staining positive area/corpus callosum area of 45.8%, in which no demyelination regeneration promoting action was shown as compared with the vehicle-administered group.

- EC50 (human VDR): 10 to 100 nM
SMILES: C[C@H](CCN1CCOCC1)[C@H]1CC[C@H]2/C(=C/C=C3C[C@@H](O)C[C@H](O)C3)CCC[C@]12C [Compound D023, (1R,3R)-5-(2-((1R,3aS,7aR,E)-7a-methyl-1-((R)-4-morpholinobutan-2-yl)octahydro-4H-inden-4-ylidene)ethylidene)cyclohexane-1,3-diol]
- Mean (number of MBP-positive cells/number of Hoechst33342-positive cells) [1]: 0.36
- Ratio (%): area of LFB staining positive/area of corpus callosum, mean (mouse cuprizone model): 87.0%
